The results in this text go back to ChEMBL document CHEMBL4393661, “PRODRUGS FOR NITROREDUCTASE BASED CANCER THERAPY- 2: Novel amide/Ntr combinations targeting PC3 cancer cells” (Eur J Med Chem, 2019).

SMILES strings stand for the structures.

For the assay, the target named is T1, Putative nitroreductase (Staphylococcus saprophyticus subsp. saprophyticus (strain ATCC 15305 / DSM20229 / NCIMB 8711 / NCTC 7292 / S-41)) (UniProt Q4A0P1).
T1 sequence (whole entry): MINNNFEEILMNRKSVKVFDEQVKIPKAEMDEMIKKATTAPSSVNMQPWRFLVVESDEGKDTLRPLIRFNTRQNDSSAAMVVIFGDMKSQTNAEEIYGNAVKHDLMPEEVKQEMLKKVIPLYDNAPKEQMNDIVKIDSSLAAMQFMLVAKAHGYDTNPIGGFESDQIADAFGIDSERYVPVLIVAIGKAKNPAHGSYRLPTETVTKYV
As to the kind of experiment: Substrate activity at Staphylococcus saprophyticus nitroreductase assessed as ratio of Kcat/Km up to 80 mM using NADH as cofactor relative to CB1954/NfsB.
`NC(=O)c1cc(N2CC2)c([N+](=O)[O-])cc1[N+](=O)[O-]`: the fold change (FC) was determined as 0.38.

In the case of `CCN(C(C)=O)c1cc([N+](=O)[O-])cc([N+](=O)[O-])c1`, the fold change (FC) was found to be 20.9.

As for `NC(=O)c1cc(N(CCCl)CCCl)c([N+](=O)[O-])cc1[N+](=O)[O-]`, the fold change (FC) is 1.67.

With `CC(=O)Nc1cc([N+](=O)[O-])cc([N+](=O)[O-])c1`, the fold change (FC) stood at 17.6.
